Data as given in patent US20120270819A1, “USE OF COMPOUNDS WITH SGLT-1/SGLT-2 INHIBITOR ACTIVITY FOR PRODUCING MEDICAMENTS FOR TREATMENT OF BONE DISEASE” (SANOFI, priority 2009, published 2012).

Tested on: female Sprague-Dawley mature and young adult rats
Assay: Ex vivo pQCT of L3 and L4 lumbar vertebrae
Type: in vivo, rat
Conditions: L3 + L4 vertebral bodies; for pQCT Total Area / pQCT Total BMC / pQCT Total BMD / pQCT Trabecular Area / pQCT Trabecular BMC / pQCT Trabecular BMD: mean
Description: Peripheral QCT scans were performed ex vivo using an XCT Research SA or SA+ bone scanner with software version 5.50D. Scans were obtained for the right femur, L3 and L4 lumbar vertebra for all animals euthanized at the end of the treatment period as well as two found dead animals. These two animals were scanned twice due to technical oversight, however only the first scans obtained were reported and the second scans were kept with the study file, this had no impact on the study as both scans were considered equivalent.
For the vertebrae, the scans were obtained at the midpoint. The L3 vertebrae from four animal and L4 vertebrae from four animals were damaged at trimming and L4 vertebrae from one animal was lost during trimming, consequently, no scans were obtained on these vertebrae. Additional slices were obtained as considered appropriate to ensure the optimal scans and data acquisition.
All analyses were performed using the LOOP option of the analysis software. All other data generated as a result of the LOOP option were retained with the raw data but not reported. The most appropriate analysis mode for the femur and the lumbar vertebrae was used and documented in the raw data and the analysis details are presented in Table 6. All scan analysis data was retained and re-analyses documented.

COc1ccc(Cc2c(OC3OC(CO)C(F)C(O)C3O)n[nH]c2C(F)(F)F)cc1 (stereo not drawn) [Example 5 of formula II]
pQCT Total Area, percent difference from Vehicle Control (mature adults, 10 mg/kg/day): 2.3% | pQCT Total BMC, percent difference from Vehicle Control (mature adults, 10 mg/kg/day): 5.9% | pQCT Total BMD, percent difference from Vehicle Control (mature adults, 10 mg/kg/day): 3.6% | pQCT Trabecular Area, percent difference from Vehicle Control (mature adults, 10 mg/kg/day): 2.4% | pQCT Trabecular BMC, percent difference from Vehicle Control (mature adults, 10 mg/kg/day): 9.0% | pQCT Trabecular BMD, percent difference from Vehicle Control (mature adults, 10 mg/kg/day): 6.9% | pQCT Total Area (mature adults, 10 mg/kg/day): 7.7 mm^2 | pQCT Total BMC (mature adults, 10 mg/kg/day): 5.6 mg/mm | pQCT Total BMD (mature adults, 10 mg/kg/day): 727.9 mg/cm^3 | pQCT Trabecular Area (mature adults, 10 mg/kg/day): 3.5 mm^2 | pQCT Trabecular BMC (mature adults, 10 mg/kg/day): 1.7 mg/mm | pQCT Trabecular BMD (mature adults, 10 mg/kg/day): 486.9 mg/cm^3 | pQCT Total Area, percent difference from Vehicle Control (mature adults, 50 mg/kg/day): 7.4% | pQCT Total BMC, percent difference from Vehicle Control (mature adults, 50 mg/kg/day): 12.4% | pQCT Total BMD, percent difference from Vehicle Control (mature adults, 50 mg/kg/day): 4.5% | pQCT Trabecular Area, percent difference from Vehicle Control (mature adults, 50 mg/kg/day): 7.5% | pQCT Trabecular BMC, percent difference from Vehicle Control (mature adults, 50 mg/kg/day): 15.1% | pQCT Trabecular BMD, percent difference from Vehicle Control (mature adults, 50 mg/kg/day): 6.8% | pQCT Total Area (mature adults, 50 mg/kg/day): 8.1 mm^2 | pQCT Total BMC (mature adults, 50 mg/kg/day): 5.9 mg/mm | pQCT Total BMD (mature adults, 50 mg/kg/day): 734.0 mg/cm^3 | pQCT Trabecular Area (mature adults, 50 mg/kg/day): 3.6 mm^2 | pQCT Trabecular BMC (mature adults, 50 mg/kg/day): 1.8 mg/mm | pQCT Trabecular BMD (mature adults, 50 mg/kg/day): 486.4 mg/cm^3 | pQCT Total Area, percent difference from Vehicle Control (young adults, 10 mg/kg/day): 1.7% | pQCT Total BMC, percent difference from Vehicle Control (young adults, 10 mg/kg/day): 8.5% | pQCT Total BMD, percent difference from Vehicle Control (young adults, 10 mg/kg/day): 6.9% | pQCT Trabecular Area, percent difference from Vehicle Control (young adults, 10 mg/kg/day): 1.6% | pQCT Trabecular BMC, percent difference from Vehicle Control (young adults, 10 mg/kg/day): 10.5% | pQCT Trabecular BMD, percent difference from Vehicle Control (young adults, 10 mg/kg/day): 8.9% | pQCT Total Area (young adults, 10 mg/kg/day): 7.4 mm^2 | pQCT Total BMC (young adults, 10 mg/kg/day): 4.9 mg/mm | pQCT Total BMD (young adults, 10 mg/kg/day): 659.9 mg/cm^3 | pQCT Trabecular Area (young adults, 10 mg/kg/day): 3.4 mm^2 | pQCT Trabecular BMC (young adults, 10 mg/kg/day): 1.6 mg/mm | pQCT Trabecular BMD (young adults, 10 mg/kg/day): 461.6 mg/cm^3 | pQCT Total Area, percent difference from Vehicle Control (young adults, 50 mg/kg/day): −5.1% | pQCT Total BMC, percent difference from Vehicle Control (young adults, 50 mg/kg/day): 2.7% | pQCT Total BMD, percent difference from Vehicle Control (young adults, 50 mg/kg/day): 8.6% | pQCT Trabecular Area, percent difference from Vehicle Control (young adults, 50 mg/kg/day): −5.0% | pQCT Trabecular BMC, percent difference from Vehicle Control (young adults, 50 mg/kg/day): 2.7% | pQCT Trabecular BMD, percent difference from Vehicle Control (young adults, 50 mg/kg/day): 8.9% | pQCT Total Area (young adults, 50 mg/kg/day): 6.9 mm^2 | pQCT Total BMC (young adults, 50 mg/kg/day): 4.7 mg/mm | pQCT Total BMD (young adults, 50 mg/kg/day): 670.6 mg/cm^3 | pQCT Trabecular Area (young adults, 50 mg/kg/day): 3.1 mm^2 | pQCT Trabecular BMC (young adults, 50 mg/kg/day): 1.4 mg/mm | pQCT Trabecular BMD (young adults, 50 mg/kg/day): 461.9 mg/cm^3
